Results taken from PMC7158045 (BMC Plant Biology, 2020).
Counter-ions that a name gives are not always drawn.

Experiments:
Assay in all cases: biochemical
ZmDRIK1-R187-P492 = molecular target: T1, ZmDRIK1-R187-P492 (Zea mays, UniProt C0P4K9); conditions: read-out: dTm B, DSF, Boltzmann fit, 0.1% DMSO
T1 construct: kinase domain, R187-P492
T1 sequence (C0P4K9 1-514): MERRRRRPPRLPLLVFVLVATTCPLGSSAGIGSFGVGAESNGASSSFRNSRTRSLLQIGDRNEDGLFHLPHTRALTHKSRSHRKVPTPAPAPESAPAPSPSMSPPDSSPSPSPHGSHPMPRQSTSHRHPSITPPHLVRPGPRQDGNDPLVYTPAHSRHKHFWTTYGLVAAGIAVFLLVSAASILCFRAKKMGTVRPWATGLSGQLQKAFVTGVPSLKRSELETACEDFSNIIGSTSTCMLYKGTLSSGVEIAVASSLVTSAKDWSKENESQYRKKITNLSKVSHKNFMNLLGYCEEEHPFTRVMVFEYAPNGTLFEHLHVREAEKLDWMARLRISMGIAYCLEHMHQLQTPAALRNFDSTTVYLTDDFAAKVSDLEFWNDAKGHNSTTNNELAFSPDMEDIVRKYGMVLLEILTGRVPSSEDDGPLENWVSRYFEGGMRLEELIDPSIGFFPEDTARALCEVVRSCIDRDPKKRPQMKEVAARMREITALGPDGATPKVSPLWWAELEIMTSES

ZmDRIK1-K217-P492 = molecular target: T2, ZmDRIK1-K217-P492 (Zea mays, UniProt C0P4K9); conditions: read-out: dTm B, sheet ZmDRIK1-K217-P492;; DSF, Boltzmann fit, 0.1% DMSO
T2 construct: kinase domain, K217-P492
T2 sequence (C0P4K9 1-514): T1 sequence (C0P4K9 1-514)

ZmDRIK1-K217-S514 = molecular target: T3, ZmDRIK1-K217-S514 (Zea mays, UniProt C0P4K9); conditions: read-out: dTm B, sheet ZmDRIK1-K217-S514;; DSF, Boltzmann fit, 0.1% DMSO
T3 construct: kinase domain, K217-S514
T3 sequence (C0P4K9 1-514): T1 sequence (C0P4K9 1-514)

[1] = molecular target: T4, ZmDRIK1 (DROUGHT RESPONSIVE INACTIVE KINASE 1), kinase domain (Zea mays, UniProt C0P4K9); conditions: read-out: dTm B, sheet ZmDRIK1-R187-S514;; DSF, Boltzmann fit, 0.1% DMSO
T4 construct: gene ZEAMMB73_Zm00001d028770; ZmDRIK1-KD R187-S514 (kinase domain)
T4 sequence (C0P4K9 187-514): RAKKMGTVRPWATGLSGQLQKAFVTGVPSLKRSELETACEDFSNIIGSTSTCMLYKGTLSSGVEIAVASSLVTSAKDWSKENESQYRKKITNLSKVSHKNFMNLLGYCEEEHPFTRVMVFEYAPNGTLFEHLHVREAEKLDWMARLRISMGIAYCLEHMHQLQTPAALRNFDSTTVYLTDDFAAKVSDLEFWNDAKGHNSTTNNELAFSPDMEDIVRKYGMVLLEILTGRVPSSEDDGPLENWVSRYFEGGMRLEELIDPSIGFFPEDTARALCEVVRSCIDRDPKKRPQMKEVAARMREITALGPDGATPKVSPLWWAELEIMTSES

ΔTm at 10 µM (ZmDRIK1-R187-P492) [°C]	ΔTm at 10 µM (ZmDRIK1-K217-P492) [°C]	ΔTm at 10 µM (ZmDRIK1-K217-S514) [°C]	ΔTm at 10 µM [1] [°C]	SMILES
-0.369	-1.06	-0.432	-0.595	Nc1ncnc2c1c(-c1cnc3[nH]ccc3c1)nn2C1CCCC1 [PP121]
-0.375	-1.32	-0.514	-0.814	Cn1c(=O)c(F)c(Nc2ccc(I)cc2F)c2c(=O)n(C[C@@H](O)CO)cnc21 [TAK-733]
-0.12	-0.653	-0.478	-1.27	CCCS(=O)(=O)Nc1ccc(F)c(C(=O)c2c[nH]c3ncc(Cl)cc23)c1F [PLX-4720]
-0.528	-1.15	-0.646	-0.903	C=CC(=O)Nc1cccc(Nc2nc(Nc3ccc(NC4CN(CCF)C4)cc3OC)ncc2C(F)(F)F)c1 [CNX-2006]
-0.394	-1.03	-0.414	-0.881	O=c1ncn2nc(Sc3ccc(F)cc3F)ccc2c1-c1c(Cl)cccc1Cl [VX-745]

Further lines, the molecule ahead of its results:

SMILES	ΔTm at 10 µM (ZmDRIK1-R187-P492) [°C]	ΔTm at 10 µM (ZmDRIK1-K217-P492) [°C]	ΔTm at 10 µM (ZmDRIK1-K217-S514) [°C]	ΔTm at 10 µM [1] [°C]
O=c1cc(N2CCOCC2)oc2c(-c3cccc4c3sc3ccccc34)cccc12 [NU7441 (KU-57788)]	-0.309	-1.94	-1.59	-0.875
CCc1ccc(C=C2SC(=S)NC2=O)cc1 [10058-F4]	-0.741	-1.02	-0.172	-1.27
O=c1c(O)c(-c2ccc(O)c(O)c2)oc2cc(O)cc(O)c12 [Quercetin]	-0.357	-1.11	-0.0338	-0.63
NC(=O)c1cnc(N[C@@H]2CCCC[C@@H]2N)nc1Nc1cccc(-n2nccn2)c1 [PRT062607 (P505-15)]	-0.212	-0.348	-0.551	-0.709
CN1CCN(C2CCN(C(=O)Nc3cc(Oc4ccc(NC(=O)C5(C(=O)Nc6ccc(F)cc6)CC5)c(F)c4)ccn3)CC2)CC1 [Golvatinib (E7050)]	-0.232	-0.473	-0.278	-0.382
CC(C)(C)c1cc(C=C(C#N)C#N)cc(C(C)(C)C)c1O [Tyrphostin 9]	-0.79	-0.298	-0.346	-0.564
CC(C)CCN1c2nc(Nc3cc(F)c(O)c(F)c3)ncc2N(C)C(=O)C1C (stereo not shown) [BI-D1870]	-0.479	-1.48	-0.612	-0.701
Cc1nc(Nc2n[nH]c3c2CN(C(=O)N[C@H](CN(C)C)c2ccccc2)C3(C)C)c2sccc2n1 [PF-3758309]	-0.393	-0.748	-0.258	-0.774
Cc1cnc(-c2cnc(NCCNc3ccc(C#N)cn3)nc2-c2ccc(Cl)cc2Cl)[nH]1 [CHIR-99021 (CT99021) HCl]	-0.404	-0.928	-0.494	-0.639
CN([C@@H](Cc1ccc(OS(=O)(=O)c2cccc3cnccc23)cc1)C(=O)N1CCN(c2ccccc2)CC1)S(=O)(=O)c1cccc2cnccc12 [KN-62]	-1.15	-1.79	-0.945	-1.39
CCCCCCCCc1ccc(CCC(N)(CO)CO)cc1 [Fingolimod (FTY720) HCl]	-0.447	-1.47	-0.608	-0.542
COc1cc2ncnc(Nc3ccc(F)c(Cl)c3)c2cc1NC(=O)/C=C/CN1CCCCC1 [Dacomitinib (PF299804)]	-0.258	-0.0919	-0.1	-0.735
N#CC(=C(/N)Sc1ccccc1N)/C(C#N)=C(\N)Sc1ccccc1N [U0126-EtOH]	-0.611	-1.09	-0.582	-1.26
FC(F)(F)c1ccc(/C=C/c2nc(COc3ccc(CCCCn4ccnn4)cc3)co2)cc1 [Mubritinib (TAK 165)]	-0.156	-0.803	-0.334	-0.964
